Our source for the IC50, residual activity and inhibition values is ChEMBL document CHEMBL4507268 (2021).

Calls of active or inactive are those of the source. The calls are words filed in the database; no cut-off is given here.

For test [1], the target named is Solute carrier family 2, facilitated glucose transporter member 1 (Homo sapiens, UniProt P11166). In words: Cellular mechanistic assay: Inhibition of glucose uptake by Hela-MaTu cells.
Test [2] has as its target RAC-alpha serine/threonine-protein kinase (Homo sapiens) (UniProt P31749). The following applies: Compound concentration 1000.0 nM.
In test [3] the test system is ALK tyrosine kinase receptor (Homo sapiens), Q9UM73 [C1156Y]. The following applies: Compound concentration 1000.0 nM.
Chain of ALK tyrosine kinase receptor (Homo sapiens), Q9UM73 [C1156Y] (Q9UM73 whole entry C1156Y, looked up): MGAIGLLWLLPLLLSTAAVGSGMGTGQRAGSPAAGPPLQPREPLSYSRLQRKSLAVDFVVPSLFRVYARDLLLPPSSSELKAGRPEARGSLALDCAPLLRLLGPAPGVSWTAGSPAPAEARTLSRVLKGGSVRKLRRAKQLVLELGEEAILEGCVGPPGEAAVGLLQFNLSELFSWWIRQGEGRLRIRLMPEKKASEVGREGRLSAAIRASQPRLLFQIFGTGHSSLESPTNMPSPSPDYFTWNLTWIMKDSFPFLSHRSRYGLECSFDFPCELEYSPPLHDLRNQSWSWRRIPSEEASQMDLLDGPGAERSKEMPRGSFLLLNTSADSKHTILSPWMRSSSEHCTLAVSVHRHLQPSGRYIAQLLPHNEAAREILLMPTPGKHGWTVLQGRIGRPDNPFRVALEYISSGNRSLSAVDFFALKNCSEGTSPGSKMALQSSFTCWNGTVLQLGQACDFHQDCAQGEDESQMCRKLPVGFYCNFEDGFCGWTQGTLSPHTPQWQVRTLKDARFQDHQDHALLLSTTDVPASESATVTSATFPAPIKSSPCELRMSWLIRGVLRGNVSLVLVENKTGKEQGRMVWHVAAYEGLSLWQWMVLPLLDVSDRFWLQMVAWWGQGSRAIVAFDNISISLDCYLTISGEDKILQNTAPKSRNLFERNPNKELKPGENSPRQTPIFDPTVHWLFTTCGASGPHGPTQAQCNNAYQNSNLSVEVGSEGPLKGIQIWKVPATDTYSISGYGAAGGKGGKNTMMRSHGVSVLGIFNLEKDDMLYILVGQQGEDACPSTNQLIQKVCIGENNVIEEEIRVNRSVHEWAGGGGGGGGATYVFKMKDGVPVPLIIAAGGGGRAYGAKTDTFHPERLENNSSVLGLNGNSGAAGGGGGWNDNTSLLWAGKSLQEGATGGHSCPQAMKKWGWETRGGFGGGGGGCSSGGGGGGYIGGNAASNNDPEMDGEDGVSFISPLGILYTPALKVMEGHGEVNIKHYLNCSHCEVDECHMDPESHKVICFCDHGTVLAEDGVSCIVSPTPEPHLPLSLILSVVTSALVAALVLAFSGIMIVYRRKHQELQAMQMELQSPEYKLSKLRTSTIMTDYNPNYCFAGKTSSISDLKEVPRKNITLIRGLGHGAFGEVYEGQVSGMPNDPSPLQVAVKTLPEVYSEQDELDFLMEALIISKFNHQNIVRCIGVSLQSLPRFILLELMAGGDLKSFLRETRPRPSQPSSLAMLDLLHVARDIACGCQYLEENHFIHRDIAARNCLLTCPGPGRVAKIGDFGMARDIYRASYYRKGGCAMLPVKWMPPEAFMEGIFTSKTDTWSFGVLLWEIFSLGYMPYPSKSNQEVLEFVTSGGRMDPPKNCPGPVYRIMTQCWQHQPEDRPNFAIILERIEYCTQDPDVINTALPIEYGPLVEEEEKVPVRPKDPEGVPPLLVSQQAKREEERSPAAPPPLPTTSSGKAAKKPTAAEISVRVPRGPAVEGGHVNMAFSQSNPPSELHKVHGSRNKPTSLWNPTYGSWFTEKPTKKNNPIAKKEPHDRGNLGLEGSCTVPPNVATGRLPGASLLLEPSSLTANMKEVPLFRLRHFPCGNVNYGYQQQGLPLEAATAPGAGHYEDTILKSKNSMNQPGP
For test [4], the target named is Cyclin-dependent kinase 13 (Homo sapiens) (UniProt Q14004). The settings on record: Compound concentration 1000.0 nM.
Test [5] has as its target T1, Rhodopsin kinase GRK1 (Homo sapiens) (UniProt Q15835).
T1 sequence (whole entry): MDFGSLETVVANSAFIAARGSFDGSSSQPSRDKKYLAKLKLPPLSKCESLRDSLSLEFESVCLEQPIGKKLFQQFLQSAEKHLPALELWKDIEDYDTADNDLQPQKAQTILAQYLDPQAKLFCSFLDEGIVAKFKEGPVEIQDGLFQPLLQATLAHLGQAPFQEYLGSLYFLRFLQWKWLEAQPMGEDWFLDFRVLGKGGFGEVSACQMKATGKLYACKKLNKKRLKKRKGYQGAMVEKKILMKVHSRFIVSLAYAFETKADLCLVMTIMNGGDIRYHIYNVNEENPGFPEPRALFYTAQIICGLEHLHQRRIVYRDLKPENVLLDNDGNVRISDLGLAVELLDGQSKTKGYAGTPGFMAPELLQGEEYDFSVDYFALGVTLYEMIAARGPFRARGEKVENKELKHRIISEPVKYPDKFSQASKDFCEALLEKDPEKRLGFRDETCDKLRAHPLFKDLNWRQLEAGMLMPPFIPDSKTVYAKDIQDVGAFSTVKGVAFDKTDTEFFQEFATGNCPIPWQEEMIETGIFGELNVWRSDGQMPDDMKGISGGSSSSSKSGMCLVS
The settings on record: Compound concentration 1000.0 nM.

The target of test [6] is Serine/threonine-protein kinase LATS2 (Homo sapiens) (UniProt Q9NRM7). The following applies: Compound concentration 1000.0 nM.
The target in test [7] is Mitogen-activated protein kinase kinase kinase kinase 2 (Homo sapiens) (UniProt Q12851). The settings on record: Compound concentration 1000.0 nM.
Chain of Mitogen-activated protein kinase kinase kinase kinase 2 (Homo sapiens) (Q12851 whole entry): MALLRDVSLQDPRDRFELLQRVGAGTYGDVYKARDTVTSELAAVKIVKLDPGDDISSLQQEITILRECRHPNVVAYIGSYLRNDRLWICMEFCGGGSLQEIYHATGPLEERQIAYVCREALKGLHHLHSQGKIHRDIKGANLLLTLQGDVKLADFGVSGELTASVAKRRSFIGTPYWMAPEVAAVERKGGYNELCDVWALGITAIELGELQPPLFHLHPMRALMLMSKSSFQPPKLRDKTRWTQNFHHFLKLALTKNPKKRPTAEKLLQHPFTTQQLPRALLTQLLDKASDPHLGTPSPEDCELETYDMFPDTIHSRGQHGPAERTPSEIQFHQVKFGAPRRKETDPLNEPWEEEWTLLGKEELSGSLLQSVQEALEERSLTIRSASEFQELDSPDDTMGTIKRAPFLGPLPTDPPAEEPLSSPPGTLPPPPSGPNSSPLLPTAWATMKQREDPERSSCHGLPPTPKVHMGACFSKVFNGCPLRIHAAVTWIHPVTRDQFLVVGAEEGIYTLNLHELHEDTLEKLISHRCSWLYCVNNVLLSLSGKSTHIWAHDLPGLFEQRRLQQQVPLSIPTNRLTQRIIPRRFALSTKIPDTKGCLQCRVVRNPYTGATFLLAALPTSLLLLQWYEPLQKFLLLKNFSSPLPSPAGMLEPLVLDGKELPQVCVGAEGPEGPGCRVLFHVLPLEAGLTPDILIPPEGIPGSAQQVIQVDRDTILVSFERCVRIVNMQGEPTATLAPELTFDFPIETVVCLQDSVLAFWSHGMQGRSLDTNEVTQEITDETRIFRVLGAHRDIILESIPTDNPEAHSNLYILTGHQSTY
For test [8], the target named is T2, Serine/threonine-protein kinase Nek11 (Homo sapiens) (UniProt Q8NG66).
T2 sequence (whole entry): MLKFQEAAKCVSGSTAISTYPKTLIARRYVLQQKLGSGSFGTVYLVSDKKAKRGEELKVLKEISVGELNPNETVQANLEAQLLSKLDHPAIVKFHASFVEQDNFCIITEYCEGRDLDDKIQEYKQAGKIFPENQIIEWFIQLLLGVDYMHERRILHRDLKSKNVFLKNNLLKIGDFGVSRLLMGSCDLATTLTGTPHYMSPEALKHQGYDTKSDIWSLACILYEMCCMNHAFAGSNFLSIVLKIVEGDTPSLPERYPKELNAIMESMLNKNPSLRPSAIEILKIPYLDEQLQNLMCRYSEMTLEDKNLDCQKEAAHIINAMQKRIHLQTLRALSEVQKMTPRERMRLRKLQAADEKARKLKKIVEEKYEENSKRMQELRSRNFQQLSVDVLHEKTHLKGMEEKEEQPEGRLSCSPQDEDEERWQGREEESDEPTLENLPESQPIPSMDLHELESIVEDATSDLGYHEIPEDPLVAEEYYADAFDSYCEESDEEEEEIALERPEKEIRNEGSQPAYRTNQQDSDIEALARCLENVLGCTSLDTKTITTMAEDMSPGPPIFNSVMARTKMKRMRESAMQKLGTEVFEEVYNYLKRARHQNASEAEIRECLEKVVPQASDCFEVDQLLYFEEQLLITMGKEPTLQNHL
The settings on record: Compound concentration 1000.0 nM.

For test [9], the target named is T3, Receptor-interacting serine/threonine-protein kinase 1 (Homo sapiens) (UniProt Q13546).
T3 sequence (whole entry): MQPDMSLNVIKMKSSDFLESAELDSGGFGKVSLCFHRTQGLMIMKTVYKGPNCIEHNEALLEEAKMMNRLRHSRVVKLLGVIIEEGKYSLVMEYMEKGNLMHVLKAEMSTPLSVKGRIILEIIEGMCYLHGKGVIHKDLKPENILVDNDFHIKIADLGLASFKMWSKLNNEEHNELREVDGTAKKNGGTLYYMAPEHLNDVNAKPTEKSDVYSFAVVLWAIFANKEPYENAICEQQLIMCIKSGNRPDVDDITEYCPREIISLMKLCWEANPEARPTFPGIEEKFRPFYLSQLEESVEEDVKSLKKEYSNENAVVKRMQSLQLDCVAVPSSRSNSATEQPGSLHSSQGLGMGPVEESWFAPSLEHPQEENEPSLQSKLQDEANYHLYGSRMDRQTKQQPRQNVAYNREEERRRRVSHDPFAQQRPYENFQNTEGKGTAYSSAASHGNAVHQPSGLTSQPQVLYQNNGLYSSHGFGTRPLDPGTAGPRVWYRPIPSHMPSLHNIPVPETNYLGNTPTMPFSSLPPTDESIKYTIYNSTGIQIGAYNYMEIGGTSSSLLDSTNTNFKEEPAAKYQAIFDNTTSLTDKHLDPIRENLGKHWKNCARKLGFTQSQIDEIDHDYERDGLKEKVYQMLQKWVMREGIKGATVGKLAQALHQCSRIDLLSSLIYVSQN
The following applies: Compound concentration 1000.0 nM.

Test [10] has as its target Ribosomal protein S6 kinase alpha-1 (Homo sapiens) (UniProt Q15418). The following applies: Compound concentration 1000.0 nM.
The target in test [11] is Tyrosine-protein kinase receptor Tie-1 (Homo sapiens) (UniProt P35590). The following applies: Compound concentration 1000.0 nM.
Chain of Tyrosine-protein kinase receptor Tie-1 (Homo sapiens) (P35590 whole entry): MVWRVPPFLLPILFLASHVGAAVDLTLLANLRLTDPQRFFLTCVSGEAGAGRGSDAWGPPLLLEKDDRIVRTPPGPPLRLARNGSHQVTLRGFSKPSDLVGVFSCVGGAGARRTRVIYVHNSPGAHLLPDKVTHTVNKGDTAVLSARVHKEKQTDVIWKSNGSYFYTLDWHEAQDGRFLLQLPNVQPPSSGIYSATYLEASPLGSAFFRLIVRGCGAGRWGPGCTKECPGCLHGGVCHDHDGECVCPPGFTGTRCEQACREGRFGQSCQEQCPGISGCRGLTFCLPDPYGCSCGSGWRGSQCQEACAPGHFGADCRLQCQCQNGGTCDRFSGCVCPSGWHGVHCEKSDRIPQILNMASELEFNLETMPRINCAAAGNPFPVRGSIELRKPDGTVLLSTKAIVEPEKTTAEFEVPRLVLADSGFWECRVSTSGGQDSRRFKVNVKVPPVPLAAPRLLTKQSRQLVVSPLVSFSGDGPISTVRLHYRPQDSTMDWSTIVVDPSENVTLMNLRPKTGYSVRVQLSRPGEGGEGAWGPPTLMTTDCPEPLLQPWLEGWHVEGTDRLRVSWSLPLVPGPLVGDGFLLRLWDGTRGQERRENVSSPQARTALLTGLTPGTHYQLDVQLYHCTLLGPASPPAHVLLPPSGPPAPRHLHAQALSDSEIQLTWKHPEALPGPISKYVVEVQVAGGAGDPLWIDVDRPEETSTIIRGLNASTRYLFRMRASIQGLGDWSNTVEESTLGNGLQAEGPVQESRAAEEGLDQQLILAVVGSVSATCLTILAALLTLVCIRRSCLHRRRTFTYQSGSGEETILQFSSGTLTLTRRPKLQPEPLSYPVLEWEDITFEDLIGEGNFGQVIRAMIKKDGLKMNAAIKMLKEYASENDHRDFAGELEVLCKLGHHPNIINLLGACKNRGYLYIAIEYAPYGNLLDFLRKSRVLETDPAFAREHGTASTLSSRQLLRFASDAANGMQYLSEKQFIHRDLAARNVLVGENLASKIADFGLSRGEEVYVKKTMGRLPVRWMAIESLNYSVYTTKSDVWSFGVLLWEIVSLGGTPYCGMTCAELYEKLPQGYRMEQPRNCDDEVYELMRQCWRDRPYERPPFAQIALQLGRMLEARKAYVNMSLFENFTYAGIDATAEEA
For test [12], the target named is T4, Serine/threonine-protein kinase ULK3 (Homo sapiens) (UniProt Q6PHR2).
T4 sequence (whole entry): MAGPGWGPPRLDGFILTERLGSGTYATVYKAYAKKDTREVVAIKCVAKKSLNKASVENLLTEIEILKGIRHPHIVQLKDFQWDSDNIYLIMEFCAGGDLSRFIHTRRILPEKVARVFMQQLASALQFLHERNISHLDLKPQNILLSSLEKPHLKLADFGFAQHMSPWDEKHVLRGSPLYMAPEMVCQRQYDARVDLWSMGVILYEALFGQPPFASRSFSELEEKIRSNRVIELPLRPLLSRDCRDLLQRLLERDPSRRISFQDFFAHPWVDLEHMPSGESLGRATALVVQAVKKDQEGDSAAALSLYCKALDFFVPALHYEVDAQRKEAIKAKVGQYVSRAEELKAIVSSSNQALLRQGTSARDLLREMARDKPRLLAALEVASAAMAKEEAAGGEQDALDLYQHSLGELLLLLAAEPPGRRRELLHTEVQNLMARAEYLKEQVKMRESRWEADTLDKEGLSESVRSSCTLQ
The following applies: Compound concentration 1000.0 nM.

Test [13] deals with 5-hydroxytryptamine receptor 5A (Homo sapiens) (UniProt P47898). The following applies: Compound concentration 10.0 uM.
Chain of 5-hydroxytryptamine receptor 5A (Homo sapiens) (P47898 whole entry): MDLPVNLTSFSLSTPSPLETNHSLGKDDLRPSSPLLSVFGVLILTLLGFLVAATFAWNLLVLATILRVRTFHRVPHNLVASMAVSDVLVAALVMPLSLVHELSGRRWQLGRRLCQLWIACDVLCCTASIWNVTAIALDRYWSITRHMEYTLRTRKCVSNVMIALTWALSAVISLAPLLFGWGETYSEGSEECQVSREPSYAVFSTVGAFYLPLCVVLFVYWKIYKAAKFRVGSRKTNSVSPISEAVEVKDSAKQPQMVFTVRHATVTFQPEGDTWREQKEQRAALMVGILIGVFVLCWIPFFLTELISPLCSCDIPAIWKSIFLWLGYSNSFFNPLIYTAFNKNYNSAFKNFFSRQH

Chain of RAC-alpha serine/threonine-protein kinase (Homo sapiens) (P31749 whole entry): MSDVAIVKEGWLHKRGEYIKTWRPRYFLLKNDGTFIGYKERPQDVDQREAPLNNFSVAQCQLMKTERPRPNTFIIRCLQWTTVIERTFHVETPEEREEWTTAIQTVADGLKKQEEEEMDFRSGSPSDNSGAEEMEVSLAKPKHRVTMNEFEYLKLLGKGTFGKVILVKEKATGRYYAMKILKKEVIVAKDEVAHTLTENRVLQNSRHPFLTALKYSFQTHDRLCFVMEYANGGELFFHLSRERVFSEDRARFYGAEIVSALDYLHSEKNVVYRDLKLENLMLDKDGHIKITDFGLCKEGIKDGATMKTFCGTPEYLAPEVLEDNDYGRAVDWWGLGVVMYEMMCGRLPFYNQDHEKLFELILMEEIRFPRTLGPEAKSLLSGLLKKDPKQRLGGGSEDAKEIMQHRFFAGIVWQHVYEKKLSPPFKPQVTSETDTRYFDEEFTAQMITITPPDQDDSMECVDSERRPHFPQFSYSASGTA
Chain of Solute carrier family 2, facilitated glucose transporter member 1 (P11166 whole entry): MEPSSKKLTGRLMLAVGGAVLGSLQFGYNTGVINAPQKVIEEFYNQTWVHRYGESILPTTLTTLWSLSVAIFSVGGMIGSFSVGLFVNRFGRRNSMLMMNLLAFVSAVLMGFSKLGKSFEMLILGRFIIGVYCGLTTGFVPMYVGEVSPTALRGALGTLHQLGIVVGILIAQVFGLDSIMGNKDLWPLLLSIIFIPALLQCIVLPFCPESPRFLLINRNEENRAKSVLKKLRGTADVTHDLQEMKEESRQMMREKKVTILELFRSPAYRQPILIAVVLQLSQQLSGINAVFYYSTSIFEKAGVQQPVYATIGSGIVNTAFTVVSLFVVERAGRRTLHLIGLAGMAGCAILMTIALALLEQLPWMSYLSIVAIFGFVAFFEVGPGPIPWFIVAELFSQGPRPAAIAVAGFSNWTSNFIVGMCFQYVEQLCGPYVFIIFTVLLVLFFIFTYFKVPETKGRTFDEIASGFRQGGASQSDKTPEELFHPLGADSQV

Take `Cc1nc(C2CCN(C(=O)c3ccc(OC(F)(F)F)cc3N)CC2)c2ncc(N3CCN(C)CC3)cc2n1` [BAY-693]: the IC50 in test [1] was 6.4 µM (not active). The residual activity is 100% in test [2]; 100% in test [3]; 88% in test [4]; 100% in test [5]; 100% in [6]; 80% in test [7]. Further, the residual activity is 100% in [8]; 98% in test [9]; 93% in test [10]; 100% in [11]; 46% in [12]. Moreover, the inhibition in [13] was -3.74%.
On to `CN1CCN(c2cnc3c(C4CCN(C(=O)c5ccc(OC(F)(F)F)cc5N)CC4)ncnc3c2)CC1` [BAY-885], for which the half-inhibitory concentration (IC50) in test [1] is 0.035 µM (active). Further, the residual activity in test [2] was 100%; in test [3], 100%; in test [4] it was 62%; in test [5], 96%; in test [6], 100%; in [7], 82%. In addition, the residual activity is 100% in [8]; 100% in test [9]; 100% in test [10]; 80% in test [11]; 100% in test [12]. Moreover, in test [13], the inhibition is -1.47%.

Broadly, the IC50 is the point on the concentration scale where inhibition reaches its midpoint. As a reminder, the inhibition is the relative decrease from the control value, in per cent.
